Measured values from BindingDB's records for doi:10.3109/14756366.2011.604851 (Shandong University, 2012).

Key:
[1] = biological target: T1, Gag-Pol polyprotein (Human immunodeficiency virus type 1 group M subtype B (isolate HXB2), UniProt P04585); assay: 3'-P Inhibitory Assay
Description: Cleavage of a dinucleotide from each 3'-end of viral cDNA. All biological assays were performed essentially as previously described [Dayam et al., J. Med. Chem., 51:1136-1144].

[2] = biological target: T1, Gag-Pol polyprotein; assay: ST Inhibitory Assay
Description: Insertion of two newly processed 3'-viral DNA ends into the host-cell chromosome. All biological assays were performed essentially as previously described [Dayam et al., J. Med. Chem., 51:1136-1144].

SMILES: CC(=O)Oc1cc(C(=O)Nc2ccc(S(=O)(=O)Nc3ccccc3)cc2)cc(OC(C)=O)c1OC(C)=O [N-(4-Phenylsulfamoylphenyl)-3,4,5-triacetoxybenzamide (8m)]
- IC50 [1]: 8 µM
- IC50 [2]: 1.6 µM

SMILES: O=C(Nc1ccc(S(=O)(=O)Nc2ccccc2)cc1)c1cc(O)c(O)c(O)c1 [N-(4-Phenylsulfamoylphenyl)galloylamide (9m)]
- IC50 [1]: 7 µM
- IC50 [2]: 1.5 µM

SMILES: O=C(Nc1ccc(S(=O)(=O)Nc2ccccc2)cc1)c1ccc(O)c(O)c1 [N-(4-phenylsulfamoylphenyl)3,4-dihydroxybenzamidebenzamide (11w)]
- IC50 [1]: 100 µM
- IC50 [2]: 50 µM
